Values of other authors in patent US6825382B2, “Trifluoromethylepinephrine compounds and methods of making and using thereof” (The United States of America as represented by the …, priority 2002, dated 2004).
Like-named read-outs stand apart in the source and are kept apart here.

Legend:
[1] = 1a versus 1b

| epinephrine remaining, of the initial concentration (dental preparations stored under clinical conditions) | epinephrine remaining, of the initial concentration (dental preparations stored under optimal conditions) [%] | Compound | biological activity of (R)-enantiomer relative to (S)-enantiomer [1] |
| --- | --- | --- | --- |
|  |  | CNC[C@H](O)c1ccc(O)c(O)c1 [1a, (−)-epinephrine] | 15-20 times |
| less than 70% | 85 to 90 | CNC[C@H](O)c1ccc(O)c(O)c1 [epinephrine] |  |
